pIC50: −log10 of the molar value. Where two headings read alike, the source gives them in different places.
Key:
[1] = system: T-cell activation in rat whole blood; assay: Example 4: IL-17A release in thapsigargin stimulated rat whole blood; type: cell-based, rat (Lewis or Sprague-Dawley); details: 24 Hr, at least 2 replicates, unit inferred, read-out: IC50 (inhibition of IL-17A release)
How it was run: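 Heparinised whole blood from naïve Lewis or Sprague-Dawley rats preincubated ≥5 min at RT with peptide, then stimulated with thapsigargin (40 μM stock added as one quarter of well volume) for 24 h at 37 °C. Supernatant IL-17A measured by ELISA; IC50 from curves normalised to stimulated and unstimulated controls, ≥2 replicates.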

Kv1.3 = target: T1, Kv1.3 (Homo sapiens, UniProt P22001); assay: Patch clamp assay (QPatch), Kv1.3; type: cell-based; details: CHO cells stably expressing human Kv1.3, read-out: Potency IC50, Kv1.3
T1 construct: expressed in transfected cells
T1 sequence (P22001 whole entry): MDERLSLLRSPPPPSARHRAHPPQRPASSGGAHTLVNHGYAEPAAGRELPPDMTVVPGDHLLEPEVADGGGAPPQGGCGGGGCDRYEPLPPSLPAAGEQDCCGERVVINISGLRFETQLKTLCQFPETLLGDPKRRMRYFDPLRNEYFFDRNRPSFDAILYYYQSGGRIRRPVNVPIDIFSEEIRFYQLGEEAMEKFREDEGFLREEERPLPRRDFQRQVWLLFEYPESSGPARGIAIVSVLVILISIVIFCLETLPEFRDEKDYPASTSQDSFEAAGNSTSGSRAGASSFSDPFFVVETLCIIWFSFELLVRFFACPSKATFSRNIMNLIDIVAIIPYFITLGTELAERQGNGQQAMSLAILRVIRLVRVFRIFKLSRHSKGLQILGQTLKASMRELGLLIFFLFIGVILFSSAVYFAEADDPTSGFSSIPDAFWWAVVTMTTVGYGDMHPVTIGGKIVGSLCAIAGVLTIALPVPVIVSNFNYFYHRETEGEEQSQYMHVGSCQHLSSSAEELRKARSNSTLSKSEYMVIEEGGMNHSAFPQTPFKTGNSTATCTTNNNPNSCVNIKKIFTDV

[2] = system: human peripheral blood mononuclear cells (PBMCs); assay: Example 3a: IL-2 release from anti-CD3 stimulated human PBMCs; type: cell-based; details: for pIC50: human PBMCs, 5 donors, anti-CD3 0.5 μg/mL, geometric mean, at least 4 replicates, read-out: anti-CD3 PBMC/ IL-2 IC50
Description: Human peripheral blood mononuclear cells (PBMCs) were used to assess the effects of Kv1.3 inhibitor peptides on T-cell activation as determined by IL-2 (cytokine) release after stimulation with anti-CD3.
Human PBMCs were obtained from Precision for Medicine (Frederick, MD). Cells from 5 donors were used. Plate-bound anti-CD3 was used to stimulate bulk T cells in the PBMC preparations. Briefly, 96-well plates were coated with anti-CD3 antibody for 2 hrs at 37° C., using 50 μL of a 0.5 μg/mL anti-CD3 solution diluted in 1×PBS. Thereafter the plates were washed twice.
Cyclosporin A (1 ug/ml) and Vm24 peptide (100 nM) were used as positive controls. Finally, 1×10^5 PBMCs were added to each well in a volume of 100 μL, giving a final volume of 200 μL per well. The plates were incubated for 20-24 hours in a 37° C./5% CO2 incubator. After centrifugation of the plates, 25 μl supernatant was transferred to IL-2 detection plates (MSD Human IL-2 Tissue Culture Kit, cat #K151AHB-2) and IL-2 was measures as described by the manufacturer (Meso Scale Discovery, Rockville, Maryland, USA).
All values derive from at least 4 replicates.

Kv1.6 = target: T2, Kv1.6 (Homo sapiens, UniProt P17658); assay: Patch clamp assay (QPatch), Kv1.6; type: cell-based; details: for pIC50: QPatch, CHO cells stably expressing human Kv1.6, read-out: Potency IC50, Kv1.6; for Selectivity Kv1.6/Kv1.3: ratio of IC50 Kv1.6/Kv1.3
T2 construct: expressed in transfected cells
T2 sequence (P17658 whole entry): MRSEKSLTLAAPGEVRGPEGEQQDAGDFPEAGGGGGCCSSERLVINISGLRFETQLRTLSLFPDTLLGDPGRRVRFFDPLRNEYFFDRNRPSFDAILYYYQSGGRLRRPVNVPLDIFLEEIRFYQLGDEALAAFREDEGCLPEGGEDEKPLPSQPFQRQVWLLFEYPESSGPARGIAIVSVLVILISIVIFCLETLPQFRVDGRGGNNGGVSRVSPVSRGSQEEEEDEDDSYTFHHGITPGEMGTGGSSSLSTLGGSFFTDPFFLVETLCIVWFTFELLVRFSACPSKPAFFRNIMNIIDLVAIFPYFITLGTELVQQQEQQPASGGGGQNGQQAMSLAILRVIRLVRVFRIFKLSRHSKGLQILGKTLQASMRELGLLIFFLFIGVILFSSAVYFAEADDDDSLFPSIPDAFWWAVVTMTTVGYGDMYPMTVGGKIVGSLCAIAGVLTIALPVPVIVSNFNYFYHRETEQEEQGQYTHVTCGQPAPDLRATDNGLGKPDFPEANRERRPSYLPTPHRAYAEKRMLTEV
Description: (§1) Selectivity of Kv1.3 inhibitor peptides for Kv1.3 over other potassium ion channels (Kv1.1, Kv1.2 and Kv1.6) was determined using patch clamp assay.
(§2) Chinese Hamster Ovary (CHO) cell lines stably expressing exogenous human α-subunits of each potassium ion channel were grown and passaged under standard culture conditions.
(§3) The automated, chip-based planar patch clamp device QPatch® was used to quantitate the ionic currents. All recordings were made in the conventional whole-cell configuration after establishment of gigaohm seals. […] During experiments 0.1% (v/v) BSA was included as a vehicle in all external recording solutions. Currents were elicited from a holding potential of −80 mV using a voltage protocol, which shifted the voltage to 30 mV for 500 ms every 15 s.
(§4) Concentration-response relationships were established by cumulatively applying seven escalating concentrations of test sample to an individual cell with a recording period of 2 min per compound application.
(§5) The efficacy was determined as the mean charge for the last three sweeps at the end of each concentration application period from the cursor positions. The percent inhibition for each test dose application period was calculated as the reduction in mean cursor value (charge) relative to the cursor value measured at the end of the vehicle period and used to calculate the IC50 from the concentration response curve.

Kv1.2 = target: T3, Kv1.2 (Homo sapiens, UniProt P16389); assay: Patch clamp assay (QPatch), Kv1.2; type: cell-based; details: for pIC50: QPatch, CHO cells stably expressing human Kv1.2, read-out: Potency IC50, Kv1.2; for Selectivity Kv1.2/Kv1.3: ratio of IC50 Kv1.2/Kv1.3
T3 construct: expressed in transfected cells
T3 sequence (P16389 whole entry): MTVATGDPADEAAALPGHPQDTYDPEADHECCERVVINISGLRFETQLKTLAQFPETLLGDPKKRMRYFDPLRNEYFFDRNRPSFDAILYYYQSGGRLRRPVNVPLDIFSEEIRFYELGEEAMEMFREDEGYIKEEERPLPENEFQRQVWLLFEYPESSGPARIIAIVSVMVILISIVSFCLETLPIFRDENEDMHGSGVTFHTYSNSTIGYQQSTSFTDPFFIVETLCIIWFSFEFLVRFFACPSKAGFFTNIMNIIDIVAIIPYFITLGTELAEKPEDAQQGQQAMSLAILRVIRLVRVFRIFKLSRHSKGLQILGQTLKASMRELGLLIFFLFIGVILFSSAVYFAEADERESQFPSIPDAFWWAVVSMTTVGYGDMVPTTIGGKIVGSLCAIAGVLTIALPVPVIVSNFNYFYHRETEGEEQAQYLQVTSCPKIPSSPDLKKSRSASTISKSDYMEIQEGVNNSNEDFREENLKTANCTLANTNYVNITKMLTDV
Description: as §1, §2, §3, §4, §5

Kv1.1 = target: T4, Kv1.1 (Homo sapiens, UniProt Q09470); assay: Patch clamp assay (QPatch), Kv1.1; type: cell-based; details: for pIC50: QPatch, CHO cells stably expressing human Kv1.1, read-out: Potency IC50, Kv1.1; for Selectivity Kv1.1/Kv1.3: ratio of IC50 Kv1.1/Kv1.3
T4 construct: expressed in transfected cells
T4 sequence (Q09470 whole entry): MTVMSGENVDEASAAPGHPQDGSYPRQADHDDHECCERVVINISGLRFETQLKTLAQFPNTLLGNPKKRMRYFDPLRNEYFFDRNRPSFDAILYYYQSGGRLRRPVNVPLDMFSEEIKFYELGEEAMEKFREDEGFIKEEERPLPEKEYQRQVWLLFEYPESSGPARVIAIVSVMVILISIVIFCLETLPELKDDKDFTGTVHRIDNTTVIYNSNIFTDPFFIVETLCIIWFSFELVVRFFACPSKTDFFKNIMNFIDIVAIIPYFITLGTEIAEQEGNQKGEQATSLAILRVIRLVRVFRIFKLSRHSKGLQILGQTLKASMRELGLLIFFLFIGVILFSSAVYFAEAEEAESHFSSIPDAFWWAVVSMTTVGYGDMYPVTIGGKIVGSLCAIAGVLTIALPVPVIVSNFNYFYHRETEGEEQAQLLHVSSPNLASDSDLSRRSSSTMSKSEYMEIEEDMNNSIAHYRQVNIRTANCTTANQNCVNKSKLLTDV
Description: as §1, §2, §3, §4, §5

[3] = system: T-cell activation in human whole blood; assay: Example 5: IFN-g, IL-2 and IL-17A release in thapsigargin stimulated human whole blood; type: cell-based; details: 24 Hr, at least 2 replicate experiments
Excerpt: Human whole blood was used to assess the potency of Kv1.3 inhibitor peptides on T-cell activation as determined by release of the cytokines IFN-g, IL-2 and IL-17A after stimulation with thapsigargin. Addition of thapsigargin activates a signalling cascade resulting in T cell proliferation and cytokine production, in which the Kv1.3 ion channel plays a key role. Activity of Kv1.3 inhibitors in human primary T cells can thus be measured in this experimental system.
Human whole blood was obtained from healthy blood donors and was collected after informed consent using Sodium Heparin blood sampling tubes (Becton, Dickinson and Company (BD), Cat #367876). Test peptides were diluted to 4× final testing concentrations in assay buffer (Dulbecco's Modified Eagle's medium (DMEM) with high glucose and GlutaMAX (3.97 mM L-alanine-L-glutamine) (Gibco Cat #61965026) supplemented with 25 mM HEPES buffer, 1 mM Sodium Pyruvate, 100 units/ml Penicillin, 100 μg/ml Streptomycin and 0.05% Casein from bovine milk (Sigma-Aldrich Cat #C4765)) and 25 μl was added to wells of a 96 well tissue culture plate. Then 50 μl human whole blood was added and incubated for minimum 5 minutes at room temperature to allow compound binding. Then 25 μl of 40 μM thapsigargin diluted in assay buffer was added to all wells of the assay plates to activate the cells, followed by incubation for 24 Hr at 37° C./5% CO2 in a humidified box. The assay plates were centrifuged for 10 min at 300 g at 4° C. and the supernatants were transferred to new plates. The concentrations of IFN-g, IL-2 and IL-17A released to the supernatants were measured using a tri-plex human cytokine detection kit (MSD Human U-Plex IFN-g, IL-2 and IL-17A kit; Meso Scale Discovery Cat #K15067L-2) and all three cytokines were measured using a MSD MESO QuickPlex SQ 120 instrument as described by the manufacturer (Meso Scale Discovery, Rockville, Maryland, USA).
To determine the potency of inhibition for the compounds, the cytokine concentration data were fitted using a three parameter logistic dose response model based on the formula Y=Bottom+(Top−Bottom)/(1+IC50/X), where Y is measured cytokine concentrations, X is compound concentrations and Top, bottom and IC50 are parameters fitted using the software Graphpad Prism version 5.04. The IC50 value calculated from the concentration response curve represents the compound concentration that gives an inhibition response halfway between the basal (Bottom) response and the maximal (Top) response.
All values are derived from at least 2 replicate experiments. All of the tested Kv1.3 blockers were able to inhibit cytokine production from human T cells present in human whole blood that was stimulated with thapsigargin.

[4] = Example 6: Pharmacokinetic characterisation after s.c. administration; type: in vivo, rat (Sprague Dawley or Wistar); details: rat, 70 nmol/kg; for AUCINF / Cmax: plasma; for T1/2: plasma terminal elimination half-life
Description: Sprague Dawley or Wistar rats (males with a body weight of approximately 250-350 g) were given a single subcutaneous (s.c.) injection of each peptide to be tested.
Following s.c. administration of the selected peptides (dose 70 nmol/kg, dosing volume either 2 or 5 mL/kg), blood samples were drawn at 15 min, 30 min, 45 min, 60 min, 90 min, 2 h, 3 h, 4 h post-dose. At each sampling time point, samples from the rats were drawn by sublingual bleeding or by tail cut. After last sampling the rats were sacrificed by O2/CO2 anaesthesia. The dosing vehicle was 10 mM phosphate, 0.8% NaCl, 0.05% Polysorbate 20 (pH 6.0).
Plasma samples were analyzed after solid phase extraction (SPE) by liquid chromatography mass spectrometry (LC-MS/MS). Mean plasma concentrations were used for calculation of the pharmacokinetic parameters using the non-compartmental approach in Phoenix WinNonlin 6.4 or a later version. […]. AUCinf is the area under the plasma concentration−time curve extrapolated to infinity (AUCinf=AUClast+Clast/λz, where Clast is the last observed plasma concentration). Cmax is the maximum observed concentration, occurring at Tmax.

Substance	pIC50 [1]	pIC50 (Kv1.3)	pIC50 [2]	pIC50 (Kv1.6)	Selectivity Kv1.6/Kv1.3 (Kv1.6)	pIC50 (Kv1.2)	Selectivity Kv1.2/Kv1.3 (Kv1.2)	pIC50 (Kv1.1)	Selectivity Kv1.1/Kv1.3 (Kv1.1)	pIC50 ([3]; read-out: Average IC50, IFN-g)	pIC50 ([3]; read-out: Average IC50, IL-2)	pIC50 ([3]; read-out: Average IC50, IL-17A)	AUCINF [4] [µM·h]	Cmax [4] [nM]	T1/2 [4] [min]	comparison of IC50 (IL-2 secretion) with ShK186 / Moka1 ([2]; in words)
H-NMDMRC(1)SASVEC(2)KQKC(3)LKAIGSRFGKC(1)MNKKC(2)KC(3)YPR-NH2 [Peptide 36]	8.60	9.70	10.00	6.72	963	7.74	88	< 5.52	>15000							
H-C(1)SASVEC(2)KQKC(3)LKAIGSIFGKC(1)[Nle]NKKC(2)KC(3)YPR-NH2 [Peptide 108]	8.80	9.37		< 5.52	>7000	< 5.52	>7000	< 5.52	>7000	10.09	9.92	9.64				
H-NID[Nle]RC(1)SASVEC(2)KQKC(3)LKAIGSIFGKC(1)[Nle]NKKC(2)KC(3)YPR-OH [Peptide 98]	8.92	9.57		< 5.52	>11300	5.69	7756	< 5.52	>11300				0.085	46.5	65.4	
H-NMDMRC(1)SASVEC(2)KQKC(3)LDAIGSIFGKC(1)MNKKC(2)KC(3)YPR-NH2 [Peptide 21]	8.92	9.68	10.00	5.60	12045	7.00	471	< 5.52	>14300							
H-NMDMRC(1)SASVEC(2)KQKC(3)LKAIGSIFGKC(1)[Nle]NKKC(2)KC(3)YPR-NH2 [Peptide 17]		9.62	10.30	5.61	10360	6.88	561	< 5.52	>12600							
H-P[Nle]E[Nle]RC(1)SASVEC(2)AQKC(3)LAAIGSIFGKC(1)[Nle]NKKC(2)KC(3)YPR-OH [Peptide 107]	8.92	9.26		< 5.52	>5500	< 5.52	5500	< 5.52	>5500				0.1766	68.4	81.6	
H-INVKCSLPQQCIKPCKDAGMRFGKCMNKKCRCYS-OH [Moka1, reference compound]					>300		31		>300							less potent in inhibiting IL-2 secretion
H-PIE[Nle]RC(1)SASVEC(2)KQKC(3)LAAIGSIFGKC(1)[Nle]NKKC(2)KC(3)YPR-OH [Peptide 105]	9.21	9.46		< 5.52	>8600	5.71	5630	< 5.52	>8600				0.1318	58.6	54.6	
H-NMDMRC(1)SASVEC(2)KQKC(3)LAAIGSIFGKC(1)MNKKC(2)KC(3)YPR-NH2 [Peptide 53]	9.16	9.96		< 5.52	>27500	7.06	803	< 5.52	>27500	9.96	10.08	9.59	0.0485	31.2	53.4	
H-NMDMRC(1)SASVEC(2)KVKC(3)LKAIGSIFGKC(1)MNKKC(2)KC(3)YPR-NH2 [Peptide 18]	9.06	9.38	9.40	6.04	2182	7.18	159	< 5.52	>7200							
H-NMDMRC(1)SASVEC(2)AQKC(3)LKAIGSIFGKC(1)MNKKC(2)KC(3)YPR-NH2 [Peptide 31]	9.39	9.85		< 5.52	>22000	6.18	4897	< 5.52	>22000				0.0467	33.3	44.4	
